System: moderate-to-severe chronic spontaneous urticaria (CSU)
Experiment: Phase 2 CSU study: urticaria activity score over 7 days (UAS7)
Format: in vivo, human
Parameters: key to UAS7 Median / UAS7 Change from baseline Median / UAS7 change from baseline, Q1 / UAS7 change from baseline, Q3 / UAS7 change from baseline, Max / UAS7 Change from baseline LS Mean (SE): UAS7 points; daily UAS score ranges 0–6 points/day, over 7 days
Text: The study comprises a 12 week, randomized, double-blind, placebo-controlled, multi-center, dose-ranging efficacy and safety phase, followed by a 40 week open label extension (OLE) phase (see FIG. 1). The study consists of three phases and an optional OLE phase. […] Clinically, CSU is characterized by the spontaneous and recurrent appearance of pruritic hives. The proposed primary endpoints were the UAS7 at Week 12 in EU and EU reference countries and the ISS7 in the US. Regardless of where a participant was from, all assessments were the same. The UAS7 score is a composite score containing both the HSS7 and the ISS7. This allowed a global assessment of the two key components of urticaria: hives and itch. […] The UAS is a validated PRO measure. […] The daily UAS scores range from 0 to 6 point/day. […] Patients were to complete the UAS using the e-diary. […] The following secondary endpoints were to be analyzed using the same approach as for the primary endpoint: • Change from baseline in UAS7 at Week 4 • Change from baseline in UAS7 at Week 12 (for US and US reference countries) • Change from baseline in ISS7 at Week 12 (except US and US reference countries) • Change from baseline in HSS7 at Week 12 The following responder secondary endpoints were to be analyzed using the Cochran-Mantel-Haenszel test adjusted by region: • Proportion of participants with UAS7<6 at Week 12 • Proportion of participants with UAS7=0 at Week 12 Participants who received selected prohibited medications and/or rescue medications were to be considered as non-responders for time points after the medication usage. For other participants, all available data including those collected during the off-treatment period were to be used to determine the responder/non-responder status. Missing data were to be considered as non-responders.

[1] = Week 9, 400 mg QPM, Prior Omalizumab Use
[2] = Week 9, 400 mg QPM, omalizumab-naive participants
[3] = Week 9, 400 mg TID, ITT population
[4] = Week 9, 400 mg TID, Omalizumab-Naïve
[5] = Week 9, 400 mg TID, Prior Omalizumab Use
[6] = Week 9, 400 mg TID, omalizumab-naive participants
[7] = Week 10, 400 mg BID, ITT population
[8] = Week 10, 400 mg BID, Omalizumab-Naïve
[9] = Week 10, 400 mg BID, Prior Omalizumab Use
[10] = Week 10, 400 mg BID, omalizumab-naive participants
[11] = Week 10, 400 mg QPM, ITT population
[12] = Week 10, 400 mg QPM, Omalizumab-Naïve
[13] = Week 10, 400 mg QPM, Prior Omalizumab Use
[14] = Week 10, 400 mg QPM, omalizumab-naive participants

Compound: CC(C)(C=C(C#N)C(=O)N1CCC[C@@H](n2nc(-c3ccc(Oc4ccccc4)cc3F)c3c(N)ncnc32)C1)N1CCN(C2COC2)CC1 [rilzabrutinib, (R)-2-[3-[4-amino-3-(2-fluoro-4-phenoxy-phenyl)pyrazolo[3,4-d]pyrimidin-1-yl]piperidine-1-carbonyl]-4-methyl-4-[4-(oxetan-3-yl)piperazin-1-yl]pent-2-enenitrile]
- UAS7 Change from baseline Mean (SD) [1]: −23.00 (NC)
- UAS7 Change from baseline Median [1]: −23.00
- UAS7 Mean (SD) [1]: 18.00 (NC)
- UAS7 Median [1]: 18.00
- UAS7 Percent change from baseline Mean (SD) [1]: −56.10 (NC) %
- UAS7 Percent change from baseline Median [1]: −56.10%
- Non-responder, UAS7 reduction from baseline of 10 points or more [2]: 20 (54.1) n (%)
- OR for rilzabrutinib vs. placebo, UAS7 reduction of 10 points or more [2]: 1.522
- RRD (%) for rilzabrutinib vs. placebo, UAS7 reduction of 10 points or more [2]: 9.7 %
- Responder, UAS7 reduction from baseline of 10 points or more [2]: 17 (45.9) n (%)
- Non-responder, UAS7 reduction from baseline of 10 points or more [3]: 13 (31.7) n (%)
- OR for rilzabrutinib vs. placebo, UAS7 reduction of 10 points or more [3]: 3.243
- RRD (%) for rilzabrutinib vs. placebo, UAS7 reduction of 10 points or more [3]: 26.2 %
- Responder, UAS7 reduction from baseline of 10 points or more [3]: 28 (68.3) n (%)
- UAS7 Change from baseline Mean (SD) [4]: −17.88 (11.04)
- UAS7 Change from baseline Median [4]: −17.00
- UAS7 Mean (SD) [4]: 12.57 (9.72)
- UAS7 Percent change from baseline Mean (SD) [4]: −57.42 (32.58) %
- UAS7 Percent change from baseline Median [4]: −60.00%
- UAS7 Change from baseline Median [5]: −24.92
- UAS7 Median [5]: 4.00
- UAS7 Percent change from baseline Mean (SD) [5]: −77.44 (25.29) %
- UAS7 Percent change from baseline Median [5]: −85.78%
- Non-responder, UAS7 reduction from baseline of 10 points or more [6]: 12 (34.3) n (%)
- OR for rilzabrutinib vs. placebo, UAS7 reduction of 10 points or more [6]: 3.460
- RRD (%) for rilzabrutinib vs. placebo, UAS7 reduction of 10 points or more [6]: 29.2 %
- Responder, UAS7 reduction from baseline of 10 points or more [6]: 23 (65.7) n (%)
- Non-responder, UAS7 reduction from baseline of 10 points or more [7]: 20 (48.8) n (%)
- RRD (%) for rilzabrutinib vs. placebo, UAS7 reduction of 10 points or more [7]: 2.8 %
- Responder, UAS7 reduction from baseline of 10 points or more [7]: 21 (51.2) n (%)
- UAS7 Change from baseline Mean (SD) [8]: −14.01 (11.59)
- UAS7 Change from baseline Median [8]: −14.50
- UAS7 Mean (SD) [8]: 15.22 (14.36)
- UAS7 Median [8]: 13.50
- UAS7 Percent change from baseline Mean (SD) [8]: −50.88 (41.19) %
- UAS7 Percent change from baseline Median [8]: −51.79%
- UAS7 Change from baseline Mean (SD) [9]: −19.40 (18.66)
- UAS7 Change from baseline Median [9]: −23.00
- UAS7 Mean (SD) [9]: 12.60 (14.98)
- UAS7 Median [9]: 4.00
- UAS7 Percent change from baseline Mean (SD) [9]: −55.61 (51.03) %
- UAS7 Percent change from baseline Median [9]: −85.19%
- Non-responder, UAS7 reduction from baseline of 10 points or more [10]: 17 (48.6) n (%)
- OR for rilzabrutinib vs. placebo, UAS7 reduction of 10 points or more [10]: 1.312
- RRD (%) for rilzabrutinib vs. placebo, UAS7 reduction of 10 points or more [10]: 7.2 %
- Responder, UAS7 reduction from baseline of 10 points or more [10]: 18 (51.4) n (%)
- Non-responder, UAS7 reduction from baseline of 10 points or more [11]: 19 (50.0) n (%)
- OR for rilzabrutinib vs. placebo, UAS7 reduction of 10 points or more [11]: 1.159
- RRD (%) for rilzabrutinib vs. placebo, UAS7 reduction of 10 points or more [11]: 3.5 %
- Responder, UAS7 reduction from baseline of 10 points or more [11]: 19 (50.0) n (%)
- UAS7 Change from baseline Mean (SD) [12]: −11.73 (10.20)
- UAS7 Change from baseline Median [12]: −10.00
- UAS7 Mean (SD) [12]: 20.27 (10.69)
- UAS7 Median [12]: 17.00
- UAS7 Percent change from baseline Mean (SD) [12]: −36.15 (29.79) %
- UAS7 Percent change from baseline Median [12]: −36.70%
- UAS7 Change from baseline Mean (SD) [13]: −25.00 (NC)
- UAS7 Change from baseline Median [13]: −25.00
- UAS7 Mean (SD) [13]: 16.00 (NC)
- UAS7 Median [13]: 16.00
- UAS7 Percent change from baseline Mean (SD) [13]: −60.98 (NC) %
- UAS7 Percent change from baseline Median [13]: −60.98%
- Non-responder, UAS7 reduction from baseline of 10 points or more [14]: 19 (51.4) n (%)
- OR for rilzabrutinib vs. placebo, UAS7 reduction of 10 points or more [14]: 1.190
- RRD (%) for rilzabrutinib vs. placebo, UAS7 reduction of 10 points or more [14]: 4.1 %
- Responder, UAS7 reduction from baseline of 10 points or more [14]: 18 (48.6) n (%)

Source: patent US20260256792A1, “TREATMENT OF CHRONIC SPONTANEOUS URTICARIA BY ADMINISTERING (R)-2-[3-[4-AMINO-3-(2-FLUORO-4-PHENOXY-PHENYL)PYRAZOLO[3,4-D]PYRIMIDIN-1-YL]PIPERIDINE-1-CARBONYL]-4-METHYL-4-[4-(OXETAN-3-YL)PIPERAZIN-1-YL]PENT-2-ENENITRILE” (priority 2023, published 2026)
